Test results from patent US5087726A, “Carbamate ACAT inhibitors” (Warner-Lambert Company, priority 1990, dated 1992).

Target: T1, acyl-CoA:cholesterol acyltransferase (ACAT) (Oryctolagus cuniculus, UniProt G1SFD9)
T1 construct: tissue preparation containing rabbit intestinal microsomes; from tissue; host or cells: rabbit intestinal microsomes
T1 sequence (G1SFD9 1-524): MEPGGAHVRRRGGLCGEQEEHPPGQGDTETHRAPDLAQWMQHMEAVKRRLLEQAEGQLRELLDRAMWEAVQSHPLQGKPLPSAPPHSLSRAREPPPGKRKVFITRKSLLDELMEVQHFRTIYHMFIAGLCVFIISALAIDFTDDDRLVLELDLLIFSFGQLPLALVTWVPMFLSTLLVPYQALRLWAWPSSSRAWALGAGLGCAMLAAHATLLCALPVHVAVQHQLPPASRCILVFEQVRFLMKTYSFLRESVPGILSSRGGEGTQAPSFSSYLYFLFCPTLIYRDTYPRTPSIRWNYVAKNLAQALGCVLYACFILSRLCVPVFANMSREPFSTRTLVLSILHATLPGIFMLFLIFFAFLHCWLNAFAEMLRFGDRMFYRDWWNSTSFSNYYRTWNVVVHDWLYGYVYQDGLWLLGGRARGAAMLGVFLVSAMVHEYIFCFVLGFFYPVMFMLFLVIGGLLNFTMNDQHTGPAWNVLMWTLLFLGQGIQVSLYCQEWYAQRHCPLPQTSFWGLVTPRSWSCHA
Experiment: in vitro ACAT inhibition: radiolabeled cholesterol oleate formed from radiolabeled oleic acid in rabbit intestinal microsomes
Assay type: biochemical
Details: tissue preparation containing rabbit intestinal microsomes; read-out: IC50 value, i.e. the concentration of test compound required to inhibit 50% expression of the enzyme
Procedure: The ability of representative compounds of the present invention to inhibit ACAT was measured using an in vitro test more fully described in Field, F. J. and Salone, R. G., Biochemica et Biophysica 712: 557-570 (1982). The test assesses the ability of a test compound to inhibit the acylation of cholesterol by oleic acid by measuring the amount of radiolabeled cholesterol oleate formed from radiolabeled oleic acid in a tissue preparation containing rabbit intestinal microsomes.

## CCCCCCCCCCCC(=O)N[C@@H](CNC(=O)Oc1c(C(C)C)cccc1C(C)C)c1ccccc1 [Example 1]
  IC50: 0.51 nM
